Our source for the KD, binding and ΔTm values is article PMC7482797 (2020).

In assay [1] the test system is BCL-2 GQ (DNA, G4) CGGGCGCGGGAGGAATTGGGCGGGAGC
Put plainly: fluorescence titration, 640 nm. Conditions: 100 mM KCl or NaCl (so in the source); 20 mM PBS, pH 7.4; 1 µM TGP18; one-site fit.

Assay [2] deals with VEGF GQ (DNA, G4) GGGGGCGGGCCGGGGGCGGGGTCCCGGCGGGGCGGAG
Put plainly: fluorescence titration, 640 nm. Conditions: 100 mM KCl or NaCl (so in the source); 20 mM PBS, pH 7.4; 1 µM TGP18; one-site fit.

Assay [3] relates to C-MYC GQ (DNA, G4) TGGGGAGGGTGGGGAGGGTGGGGAAGG
The assay can be described thus: fluorescence titration, 640 nm. Conditions: 100 mM KCl or NaCl (so in the source); 20 mM PBS, pH 7.4; 1 µM TGP18; one-site fit.

In assay [4] the test system is c-KIT2 GQ (DNA, G4) CGGGCGGGCGCGAGGGAGGGG
Put plainly: fluorescence titration, 640 nm. Particulars: 100 mM KCl or NaCl (so in the source); 20 mM PBS, pH 7.4; 1 µM TGP18; one-site fit.

Assay [5] has as its system KRAS GQ (DNA, G4) GGGAGGGAGGGAAGGAGGGAGGGAGGGA
The assay can be described thus: fluorescence titration, 640 nm. Particulars: 100 mM KCl or NaCl (so in the source); 20 mM PBS, pH 7.4; 1 µM TGP18; one-site fit.

Assay [6] relates to TEL22 GQ (DNA, G4) AGGGTTAGGGTTAGGGTTAGGG
The assay can be described thus: fluorescence lifetime (TCSPC). Conditions: qualitative; lifetime 1.6 ns against 0.26 ns free; three-fold excess DNA over titration end point.

Assay [7] deals with BCL-2 GQ (DNA, G4) CGGGCGCGGGAGGAATTGGGCGGGAGC
Put plainly: CD melting. Conditions: 100 mM KCl; 20 mM PBS, pH 7.4; 2 µM GQ, TGP18 at 1:1 (2 µM).

With `CCN(CC)c1ccc2cc(C=Cc3ccc4ccc5ccc(C)nc5c4[n+]3C)c(=O)oc2c1`, the KD stood at 728 ± 34 nM in assay [1]; 2120 ± 350 nM in assay [2]; 1500 ± 190 nM in assay [3]; 5500 ± 230 nM in assay [4]; 1300 ± 130 nM in assay [5]. The binding entry in assay [6] is recorded as “yes”. The ΔTm in assay [7] stood at 8 °C.
